Converted amounts (≈) assume the structure as drawn.
Tests used:
Klebsiella pneumoniae = assay: Antibacterial activity against Klebsiella pneumoniae after 18 hr by broth microdilution technique; type: functional
Candida tropicalis = assay: Antifungal activity against Candida tropicalis after 18 hr by broth microdilution technique; type: functional
Saccharomyces cerevisiae = assay: Antifungal activity against Saccharomyces cerevisiae after 18 hr by broth microdilution technique; type: functional
Enterococcus faecalis = assay: Antibacterial activity against Enterococcus faecalis after 18 hr by broth microdilution technique; type: functional
Pseudomonas aeruginosa = assay: Antibacterial activity against Pseudomonas aeruginosa after 18 hr by broth microdilution technique; type: functional
Escherichia coli = assay: Antibacterial activity against Escherichia coli after 18 hr by broth microdilution technique; type: functional
Aspergillus niger = assay: Antifungal activity against Aspergillus niger after 18 hr by broth microdilution technique; type: functional
A549 = assay: Cytotoxicity against Homo sapiens (human) A549 cells after 72 hr by MTT assay; type: cell-based; conditions: A549, 72 h
Staphylococcus aureus = assay: Antibacterial activity against Staphylococcus aureus after 18 hr by broth microdilution technique; type: functional
[1] = system: Mycobacterium tuberculosis; assay: Antimycobacterial activity against Mycobacterium tuberculosis H37Rv after 21 days by broth dilution method; type: functional; conditions: 504 h
Bacillus subtilis = assay: Antibacterial activity against Bacillus subtilis after 18 hr by broth microdilution technique; type: functional
Vero = assay: Cytotoxicity against Chlorocebus aethiops (African green monkey) Vero cells after 72 hr by MTT assay; type: cell-based; conditions: Chlorocebus sabaeus

SMILES | MIC (Klebsiella pneumoniae) | MIC (Candida tropicalis) | MIC (Saccharomyces cerevisiae) | MIC (Enterococcus faecalis) | MIC (Pseudomonas aeruginosa) | MIC (Escherichia coli) | MIC (Aspergillus niger) | IC50 (A549) | MIC (Staphylococcus aureus) | MIC [1] | MIC (Bacillus subtilis) | IC50 (Vero)
O=C(NNC(=O)c1ccccc1[N+](=O)[O-])c1ccc(-n2cccc2)cc1 | > 500 µg/mL | 31.2 µg/mL (≈ 89.2 µM) | 31.2 µg/mL (≈ 89.2 µM) | 31.2 µg/mL (≈ 89.2 µM) | 16 µg/mL (≈ 45.7 µM) | 31.2 µg/mL (≈ 89.2 µM) | 31.2 µg/mL (≈ 89.2 µM) | 205 µM | 62.5 µg/mL (≈ 178 µM) | 8 µg/mL (≈ 22.8 µM) | 16 µg/mL (≈ 45.7 µM) | 182 µM
CC(=O)N1N=C(c2ccc(-n3c(C)ccc3C)cc2)OC1c1c(Cl)cccc1Cl (stereo not given) | 62.5 µg/mL (≈ 146 µM) | 4 µg/mL (≈ 9.34 µM) | 16 µg/mL (≈ 37.4 µM) | 2 µg/mL (≈ 4.67 µM) | 8 µg/mL (≈ 18.7 µM) | 16 µg/mL (≈ 37.4 µM) | 4 µg/mL (≈ 9.34 µM) | 224 µM | 2 µg/mL (≈ 4.67 µM) | 2 µg/mL (≈ 4.67 µM) | 4 µg/mL (≈ 9.34 µM) | 220 µM
Brc1ccccc1-c1nnc(-c2ccc(-n3cccc3)cc2)o1 | > 500 µg/mL | 4 µg/mL (≈ 10.9 µM) | 31.2 µg/mL (≈ 85.3 µM) | 31.2 µg/mL (≈ 85.3 µM) | 8 µg/mL (≈ 21.8 µM) | 8 µg/mL (≈ 21.8 µM) | 16 µg/mL (≈ 43.7 µM) | 252 µM | 31.2 µg/mL (≈ 85.3 µM) | 8 µg/mL (≈ 21.8 µM) | 8 µg/mL (≈ 21.8 µM) | 258 µM
O=[N+]([O-])c1ccc(-c2nnc(-c3ccc(-n4cccc4)cc3)o2)cc1 | > 500 µg/mL | 31.2 µg/mL (≈ 94 µM) | 31.2 µg/mL (≈ 94 µM) | 16 µg/mL (≈ 48.1 µM) | 4 µg/mL (≈ 12 µM) | 4 µg/mL (≈ 12 µM) | 31.2 µg/mL (≈ 94 µM) | 258 µM | 31.2 µg/mL (≈ 94 µM) | 2 µg/mL (≈ 6.02 µM) | 4 µg/mL (≈ 12 µM) | 258 µM
O=C(NNC(=O)c1cccc([N+](=O)[O-])c1)c1ccc(-n2cccc2)cc1 | > 500 µg/mL | 31.2 µg/mL (≈ 89.2 µM) | 31.2 µg/mL (≈ 89.2 µM) | 62.5 µg/mL (≈ 178 µM) | 16 µg/mL (≈ 45.7 µM) | 16 µg/mL (≈ 45.7 µM) | 31.2 µg/mL (≈ 89.2 µM) | 203 µM | 62.5 µg/mL (≈ 178 µM) | 8 µg/mL (≈ 22.8 µM) | 16 µg/mL (≈ 45.7 µM) | 195 µM
CC(=O)N1N=C(c2ccc(-n3c(C)ccc3C)cc2)OC1c1ccc(O)cc1 (stereo not given) | 31.2 µg/mL (≈ 83.2 µM) | 8 µg/mL (≈ 21.3 µM) | 31.2 µg/mL (≈ 83.2 µM) | 31.2 µg/mL (≈ 83.2 µM) | 62.5 µg/mL (≈ 166 µM) | 62.5 µg/mL (≈ 166 µM) | 8 µg/mL (≈ 21.3 µM) | 190 µM | 31.2 µg/mL (≈ 83.2 µM) | 16 µg/mL (≈ 42.6 µM) | 16 µg/mL (≈ 42.6 µM) | 187 µM
Cc1ccc(C)n1-c1ccc(-c2n[nH]c(=S)n2N)cc1 | 500 µg/mL (≈ 1750 µM) | 2 µg/mL (≈ 7.01 µM) | 4 µg/mL (≈ 14 µM) | 16 µg/mL (≈ 56.1 µM) | 500 µg/mL (≈ 1750 µM) | 500 µg/mL (≈ 1750 µM) | 4 µg/mL (≈ 14 µM) | 170 µM | 16 µg/mL (≈ 56.1 µM) | 4 µg/mL (≈ 14 µM) | 31.2 µg/mL (≈ 110 µM) | 160 µM
O=C(NNC(=O)c1ccc(F)c(C(F)(F)F)c1)c1ccc(-n2cccc2)cc1 | > 500 µg/mL | 4 µg/mL (≈ 10.2 µM) | 16 µg/mL (≈ 40.9 µM) | 31.2 µg/mL (≈ 79.9 µM) | 8 µg/mL (≈ 20.4 µM) | 8 µg/mL (≈ 20.4 µM) | 8 µg/mL (≈ 20.4 µM) | 200 µM | 62.5 µg/mL (≈ 160 µM) | 8 µg/mL (≈ 20.4 µM) | 16 µg/mL (≈ 40.9 µM) | 196 µM
CC(=O)N1N=C(c2ccc(-n3c(C)ccc3C)cc2)OC1c1ccc(Br)cc1 (stereo not given) | 31.2 µg/mL (≈ 71.3 µM) | 8 µg/mL (≈ 18.3 µM) | 31.2 µg/mL (≈ 71.3 µM) | 31.2 µg/mL (≈ 71.3 µM) | 500 µg/mL (≈ 1140 µM) | 500 µg/mL (≈ 1140 µM) | 16 µg/mL (≈ 36.5 µM) | 195 µM | 16 µg/mL (≈ 36.5 µM) | 8 µg/mL (≈ 18.3 µM) | 8 µg/mL (≈ 18.3 µM) | 195 µM
O=C(NNC(=O)c1ccccc1Br)c1ccc(-n2cccc2)cc1 | > 500 µg/mL | 8 µg/mL (≈ 20.8 µM) | 31.2 µg/mL (≈ 81.3 µM) | 62.5 µg/mL (≈ 163 µM) | 16 µg/mL (≈ 41.6 µM) | 16 µg/mL (≈ 41.6 µM) | 16 µg/mL (≈ 41.6 µM) | 201 µM | 62.5 µg/mL (≈ 163 µM) | 8 µg/mL (≈ 20.8 µM) | 16 µg/mL (≈ 41.6 µM) | 198 µM
O=C(NNC(=O)c1ccc(-n2cccc2)cc1)c1ccccc1 | > 500 µg/mL | 31.2 µg/mL (≈ 102 µM) | 31.2 µg/mL (≈ 102 µM) | 62.5 µg/mL (≈ 205 µM) | 62.5 µg/mL (≈ 205 µM) | 31.2 µg/mL (≈ 102 µM) | 31.2 µg/mL (≈ 102 µM) | 215 µM | 62.5 µg/mL (≈ 205 µM) | 8 µg/mL (≈ 26.2 µM) | 16 µg/mL (≈ 52.4 µM) | 200 µM
CC(=O)N1N=C(c2ccc(-n3c(C)ccc3C)cc2)OC1c1ccc(N(C)C)cc1 (stereo not given) | 31.2 µg/mL (≈ 77.6 µM) | 31.2 µg/mL (≈ 77.6 µM) | 31.2 µg/mL (≈ 77.6 µM) | 31.2 µg/mL (≈ 77.6 µM) | 500 µg/mL (≈ 1240 µM) | 500 µg/mL (≈ 1240 µM) | 31.2 µg/mL (≈ 77.6 µM) | 186 µM | 31.2 µg/mL (≈ 77.6 µM) | 16 µg/mL (≈ 39.8 µM) | 16 µg/mL (≈ 39.8 µM) | 175 µM
O=C(NNC(=O)c1ccc([N+](=O)[O-])cc1)c1ccc(-n2cccc2)cc1 | > 500 µg/mL | 31.2 µg/mL (≈ 89.2 µM) | 31.2 µg/mL (≈ 89.2 µM) | 31.2 µg/mL (≈ 89.2 µM) | 16 µg/mL (≈ 45.7 µM) | 16 µg/mL (≈ 45.7 µM) | 31.2 µg/mL (≈ 89.2 µM) | 198 µM | 62.5 µg/mL (≈ 178 µM) | 8 µg/mL (≈ 22.8 µM) | 16 µg/mL (≈ 45.7 µM) | 190 µM
CC(=O)NNC(=O)c1ccc(-n2c(C)ccc2C)cc1 | 500 µg/mL (≈ 1840 µM) | 62.5 µg/mL (≈ 230 µM) | 62.5 µg/mL (≈ 230 µM) | 31.2 µg/mL (≈ 115 µM) | 500 µg/mL (≈ 1840 µM) | 500 µg/mL (≈ 1840 µM) | 62.5 µg/mL (≈ 230 µM) | 180 µM | 31.2 µg/mL (≈ 115 µM) | 4 µg/mL (≈ 14.7 µM) | 16 µg/mL (≈ 59 µM) | 172 µM
Fc1ccc(-c2nnc(-c3ccc(-n4cccc4)cc3)o2)cc1C(F)(F)F | > 500 µg/mL | 2 µg/mL (≈ 5.36 µM) | 4 µg/mL (≈ 10.7 µM) | 8 µg/mL (≈ 21.4 µM) | 2 µg/mL (≈ 5.36 µM) | 2 µg/mL (≈ 5.36 µM) | 4 µg/mL (≈ 10.7 µM) | 270 µM | 31.2 µg/mL (≈ 83.7 µM) | 1 µg/mL (≈ 2.68 µM) | 1 µg/mL (≈ 2.68 µM) | 268 µM

From ChEMBL document CHEMBL3046206, “Synthesis of new 4-(2,5-dimethylpyrrol-1-yl)/4-pyrrol-1-yl benzoic acid hydrazide analogs and some derived oxadiazole, triazole and pyrrole ring systems: a novel class of potential antibacterial, antifungal and antitubercular agents” (Med Chem Res, 2013)
